Laboratory results published in US12035717B1, “2-OXO-2-({2-[(phenylcarbamoyl)oxy]ethyl} amino)ethyl phenylcarbamate as an eco-friendly insecticidal agent against spodoptera littoralis (boisd.)” (priority 2024, dated 2024).
Converted amounts (≈) assume the structure as drawn.

System: Spodoptera littoralis larvae (laboratory strain of cotton leafworm)
Assay: Insecticidal leaf dip bioassay on S. littoralis larvae
Conditions: for LC50: after 72 hours of treatment, castor leaf dip; for Toxicity index % / Toxicity ratio: 72 hours; for Toxicity index %: fenoxycarb = 100; for Toxicity ratio: fenoxycarb's LC50/compound's LC50 * 100
[1] = Spodoptera littoralis, in Gossypium hirsutum, foliar, 72 h, 4th instar larvae
[2] = Spodoptera littoralis, in Gossypium hirsutum, foliar, 72 h, 2nd instar larvae

Experimental: Five concentrations (200, 100, 50, 25, 12.5 ppm) were designed for this synthetic compound and the reference fenoxycarb's compound as the dynamic ingredients based on ppm via diluting the commercial formulation.
In this experiment, the synthetic compound was tested for its insecticidal bioactivity using the industry-standard leaf dip bioassay techniques. […] Until usage, the stocks were kept in a refrigerator. The target substance test results were noted & the concentrations needed to destroy 50% (LC50) of S. littoralis larvae were calculated. The target compound was employed in five different concentrations, & 0.1% Tween 80 was employed as a surfactant. Castor bean leaf discs (nine centimeters in diameter) were dipped in the concentration under test for ten seconds, then fed to 2th & 4th larvae, which were roughly the same size and housed in glass jars (five pound). Each action carried out 3 times with ten larvae each. The mortality equalized via Abbott's formula. Calculations of mortality setback line were measurably rummage via probity analysis. Harmfulness index was strongminded via sun equations. The mortality results of larval insect were estimated through employing probit analysis through a statistics (LDP-line) equation which estimate the LC50 values with 95% fiducially limits of lower, upper confidence limit and slope.

SMILES	LC50 (2nd instar larvae)	LC50 [1]	Toxicity index % (2nd instar larvae)	Toxicity ratio (4th instar larvae)	LC50 (4th instar larvae)	LC50 [2]	Activity against Spodoptera littoralis (in words) (summary of Table 1 data)
O=C(COC(=O)Nc1ccccc1)NCCOC(=O)Nc1ccccc1 [2-oxo-2-({2-[(phenylcarbamoyl)oxy]ethyl}amino)ethyl phenylca] [2-oxo-2-({2-[(phenylcarbamoyl)oxy]ethyl}amino)ethyl phenylcarbamate]	about 14.80 mg/L	–	–	–	–	–	–
O=C(COC(=O)Nc1ccccc1)NCCOC(=O)Nc1ccccc1 [2-oxo-2-({2-[(phenylcarbamoyl)oxy]ethyl}amino)ethyl phenylcarbamate]	–	~81 µg/mL (≈ 227 µM)	–	–	–	–	–
O=C(COC(=O)Nc1ccccc1)NCCOC(=O)Nc1ccccc1 [Compound 2, 2-oxo-2-({2-[(phenylcarbamoyl)oxy]ethyl}amino)ethyl phenylcarbamate]	–	–	40.13%	73.98	80.98 µg/mL (≈ 227 µM)	14.8 µg/mL (≈ 41.4 µM)	active against Spodoptera littoralis
CCOC(=O)NCCOc1ccc(Oc2ccccc2)cc1 [Fenoxycarb, reference compound]	–	59.9 µg/mL (≈ 199 µM)	100%	100	–	5.94 µg/mL (≈ 19.7 µM)	–
